Experimental data published in US8119624B2, “Fused phenyl amido heterocyclic compounds” (Pfizer Inc., priority 2006, dated 2012).

Biological target: T1, Full-length glucokinase (beta cell isoform) (Homo sapiens, UniProt P35557)
T1 construct: Full-length glucokinase (beta cell isoform) was His-tagged at N-terminus; His tag (N); made in house
T1 sequence (P35557 1-465): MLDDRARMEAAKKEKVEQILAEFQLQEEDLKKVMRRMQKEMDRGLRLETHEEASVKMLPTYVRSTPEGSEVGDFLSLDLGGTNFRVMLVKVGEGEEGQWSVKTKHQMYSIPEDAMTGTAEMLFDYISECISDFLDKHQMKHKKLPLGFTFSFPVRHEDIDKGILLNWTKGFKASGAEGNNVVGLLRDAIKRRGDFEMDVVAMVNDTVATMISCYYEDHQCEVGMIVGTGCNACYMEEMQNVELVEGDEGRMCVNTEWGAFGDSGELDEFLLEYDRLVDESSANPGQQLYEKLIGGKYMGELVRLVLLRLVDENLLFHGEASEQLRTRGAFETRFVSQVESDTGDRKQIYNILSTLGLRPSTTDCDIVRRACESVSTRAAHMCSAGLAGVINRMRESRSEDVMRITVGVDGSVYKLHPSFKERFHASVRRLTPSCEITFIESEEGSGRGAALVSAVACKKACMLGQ
Assay: Glucokinase biochemical assay (PK/LDH-coupled, NADH depletion at 340 nm): % activation, EC50, % max activation
Conditions: 5 mM glucose; for activation at 10 µM / % Activation at 10 uM: 10 uM compound, % Activation=(Va/Vo−1)×100; for activation at 10 µM: read-out: % Activation at 10 uM; for EC50: GK activation, read-out: EC50; for Emax / % Max Activation: fitted maximum activation; for Emax: read-out: % Max Activation
Protocol: Full-length glucokinase (beta cell isoform) was His-tagged at N-terminus and purified by a Ni column followed by size exclusion chromatography. Glucose was obtained from Calbiochem, and other reagents were from Sigma.
All assays were performed in a Corning 96-well plate using Spectramax PLUS spectrophotometer (Molecular Devices) at room temperature. The final assay volume was 100 uL. The buffer conditions used in this assay were as follows: 50 mM HEPES, 5 mM glucose, 1 mM ATP, 2 mM MgCl2, 0.7mM NADH, 2 mM DTT, 1 Unit/mL PK/LDH, 0.2 mM phosphoenolpyruvate, 25 mM KCl. Tested compound in DMSO solution was added to the buffer and mixed well by a plate shaker for 1 minute. The final concentration of DMSO introduced into the assay was 1%.
Glucokinase was added to the buffer mixture to initiate the reaction in the presence and absence of compound. Reaction was monitored by absorbance at 340nm due to the depletion of NADH. The initial reaction velocity was measured by the slope of a linear time course of 200-900 sec.
The percentage of activation was calculated by the following equation: % Activation=(Va/Vo−1)×100;
wherein each of Va and Vo is defined as the initial reaction velocity in the presence and absence of the tested compound, respectively.
The GK activities were measured as a function of compound concentrations.

Row | SMILES | activation at 10 µM [%] | EC50 [nM] | Emax [%] | % Activation at 10 uM [%] | % Max Activation [%]
1 | CCn1ncc(NC(=O)c2cc(Oc3ccc(S(C)(=O)=O)cc3)c3c(c2)OC(C)(C)C3)n1 [Example 29, 4-(4-Methanesulfonyl-phenoxy)-2,2-dimethyl-2,3-dihydro-benzofuran-6-carboxylic acid(2-ethyl-2H-[1,2,3]triazol-4-yl)-amide] | 284 | 250 | 255 |  | 
2 | Cn1ccc(NC(=O)c2cc(Oc3ccc(C(=O)N4CCC4)c(F)c3)c3c(c2)OC(C)(C)C3)n1 [Example 33, 4-[4-(Azetidine-1-carbonyl)-3-fluoro-phenoxy]-2,2-dimethyl-2,3-dihydro-benzofuran-6-carboxylic acid(1-methyl-1H-pyrazol-3-yl)-amide] |  | 66.1 |  | 170 | 171
3 | Cn1ccc(NC(=O)c2cc(Oc3ccc(C(=O)N4CCC4)cc3)c3c(c2)OC(C)(C)C3)n1 [Example 35, 4-[4-(Azetidine-1-carbonyl)-phenoxy]-2,2-dimethyl-2,3-dihydro-benzofuran-6-carboxylic acid(1-methyl-1H-pyrazol-3-yl)-amide] | 145 | 105 | 145 |  | 
4 | Cn1ccc(NC(=O)c2cc(Oc3cccc(C(=O)N4CCC4)c3)c3c(c2)OC(C)(C)C3)n1 [Example 37, 4-[3-(Azetidine-1-carbonyl)-phenoxy]-2,2-dimethyl-2,3-dihydro-benzofuran-6-carboxylic acid(1-methyl-1H-pyrazol-3-yl)-amide] | 107 | 890 | 143 |  | 
5 | Cn1ccc(NC(=O)c2cc(Oc3ccc(CO)cc3F)c3c(c2)OC(C)(C)C3)n1 [Example 40, 4-(2-Fluoro-4-hydroxymethyl-phenoxy)-2,2-dimethyl-2,3-dihydro-benzofuran-6-carboxylic acid(1-methyl-1H-pyrazol-3-yl)-amide] |  | 3600 |  | 109 | 150
6 | CN1CCN(C(=O)c2ccc(Oc3cc(C(=O)Nc4ccn(C)n4)cc4c3CC(C)(C)O4)c(F)c2)CC1 [Example 42, 4-[2-Fluoro-4-(4-methyl-piperazine-1-carbonyl)-phenoxy]-2,2-dimethyl-2,3-dihydro-benzofuran-6-carboxylic acid(1-methyl-1H-pyrazol-3-yl)-amide] | 128 | 2300 | 139 |  | 
7 | CN(C)C1CN(C(=O)c2ccc(Oc3cc(C(=O)Nc4ccn(C)n4)cc4c3CC(C)(C)O4)c(F)c2)C1 [Example 44, 4-[4-(3-Dimethylamino-azetidine-1-carbonyl)-2-fluoro-phenoxy]-2,2-dimethyl-2,3-dihydro-benzofuran-6-carboxylic acid(1-methyl-1H-pyrazol-3-yl)-amide] | 137 | 580 | 146 |  | 
8 | CN(C)C(=O)c1ccc(Oc2cc(C(=O)Nc3ccn(C)n3)cc3c2CC(C)(C)O3)c(F)c1 [Example 46, 4-(4-Dimethylcarbamoyl-2-fluoro-phenoxy)-2,2-dimethyl-2,3-dihydro-benzofuran-6-carboxylic acid(1-methyl-1H-pyrazol-3-yl)-amide] | 118 | 310 | 138 |  | 
9 | Cn1ccc(NC(=O)c2cc(Oc3ccc(C(=O)N4CCCC4)cc3)c3c(c2)OC(C)(C)C3)n1 [Example 48, 2,2-Dimethyl-4-[4-(pyrrolidine-1-carbonyl)-phenoxy]-2,3-dihydro-benzofuran-6-carboxylic acid(1-methyl-1H-pyrazol-3-yl)-amide] | 130 | 142 | 114 |  | 

Now from value to compound, other results behind:

Row | activation at 10 µM [%] | EC50 [nM] | Emax [%] | SMILES | % Activation at 10 uM [%] | % Max Activation [%]
10 | 144 | 4200 | 183 | COCc1nnc(NC(=O)c2cc(Oc3ccc(S(C)(=O)=O)cc3)c3c(c2)OC(C)(C)C3)s1 [Example 30, 4-(4-Methanesulfonyl-phenoxy)-2,2-dimethyl-2,3-dihydro-benzofuran-6-carboxylic acid(5-methoxymethyl-[1,3,4]thiadiazol-2-yl)-amide] |  | 
11 | 135 | 2100 | 153 | Cn1ccc(NC(=O)c2cc(Oc3ccc(C#N)cc3F)c3c(c2)OC(C)(C)C3)n1 [Example 31, 4-(4-Cyano-2-fluoro-phenoxy)-2,2-dimethyl-2,3-dihydro-benzofuran-6-carbo-xylic acid(1-methyl-1H-pyrazol-3-yl)-amide] |  | 
12 | 164 | 210 | 177 | Cn1ccc(NC(=O)c2cc(Oc3ccc(C(=O)N4CCC4)cc3F)c3c(c2)OC(C)(C)C3)n1 [Example 32, 4-[4-(Azetidine-1-carbonyl)-2-fluoro-phenoxy]-2,2-dimethyl-2,3-dihydro-benzo-furan-6-carboxylic acid(1-methyl-1H-pyrazol-3-yl)-amide] |  | 
13 | 75.1 | > 10000 |  | Cn1ccc(NC(=O)c2cc(Oc3cc(F)ccc3C(=O)N3CCC3)c3c(c2)OC(C)(C)C3)n1 [Example 34, 4-[2-(Azetidine-1-carbonyl)-5-fluoro-phenoxy]-2,2-dimethyl-2,3-dihydro-benzofuran-6-carboxylic acid(1-methyl-1H-pyrazol-3-yl)-amide] |  | 
14 | 130 | 1100 | 149 | Cn1ccc(NC(=O)c2cc(Oc3cccc(S(C)(=O)=O)c3)c3c(c2)OC(C)(C)C3)n1 [Example 36, 4-(3-Methanesulfonyl-phenoxy)-2,2-dimethyl-2,3-dihydro-benzofuran-6-carboxylic acid(1-methyl-1H-pyrazol-3-yl)-amide] |  | 
15 | 109 | 2400 | 149 | Cn1ccc(NC(=O)c2cc(Oc3ccc(C(F)F)cc3)c3c(c2)OC(C)(C)C3)n1 [Example 38, 4-(4-Difluoromethyl-phenoxy)-2,2-dimethyl-2,3-dihydro-benzofuran-6-carboxylic acid(1-methyl-1H-pyrazol-3-yl)-amide] |  | 
16 | 105 | 2000 | 133 | CN(C)Cc1ccc(Oc2cc(C(=O)Nc3ccn(C)n3)cc3c2CC(C)(C)O3)c(F)c1 [Example 39, 4-(4-Dimethylaminomethyl-2-fluoro-phenoxy)-2,2-dimethyl-2,3-dihydro-benzofuran-6-carboxylic acid(1-methyl-1H-pyrazol-3-yl)-amide] |  | 
17 | 138 | 1400 | 141 | Cn1ccc(NC(=O)c2cc(Oc3ccc(C(=O)N4CCOCC4)cc3F)c3c(c2)OC(C)(C)C3)n1 [Example 41, 4-[2-Fluoro-4-(morpholine-4-carbonyl)-phenoxy]-2,2-dimethyl-2,3-dihydro-benzofuran-6-carboxylic acid(1-methyl-1H-pyrazol-3-yl)-amide] |  | 
18 | 164 | 730 | 174 | Cn1ccc(NC(=O)c2cc(Oc3ccc(C(=O)N4CC(F)(F)C4)cc3F)c3c(c2)OC(C)(C)C3)n1 [Example 43, 4-[4-(3,3-Difluoro-azetidine-1-carbonyl)-2-fluoro-phenoxy]-2,2-dimethyl-2,3-dihydro-benzofuran-6-carboxylic acid(1-methyl-1H-pyrazol-3-yl)-amide] |  | 
19 | 150 | 570 | 146 | Cn1ccc(NC(=O)c2cc(Oc3ccc(C(=O)N4CC(O)C4)cc3F)c3c(c2)OC(C)(C)C3)n1 [Example 45, 4-[2-Fluoro-4-(3-hydroxy-azetidine-1-carbonyl)-phenoxy]-2,2-dimethyl-2,3-dihydro-benzofuran-6-carboxylic acid(1-methyl-1H-pyrazol-3-yl)-amide] |  | 
20 | 140 | 1050 | 156 | Cn1ccc(NC(=O)c2cc(Oc3ccc(C(=O)N4CCOCC4)cc3)c3c(c2)OC(C)(C)C3)n1 [Example 47, 2,2-Dimethyl-4-[4-(morpholine-4-carbonyl)-phenoxy]-2,3-dihydro-benzofuran-6-carboxylic acid(1-methyl-1H-pyrazol-3-yl)-amide] |  | 
21 | 133 | 455 | 147 | CN(C)C1CN(C(=O)c2ccc(Oc3cc(C(=O)Nc4ccn(C)n4)cc4c3CC(C)(C)O4)cc2)C1 [Example 49, 4-[4-(3-Dimethylamino-azetidine-1-carbonyl)-phenoxy]-2,2-dimethyl-2,3-dihydro-benzofuran-6-carboxylic acid(1-methyl-1H-pyrazol-3-yl)-amide] |  | 
